# Measurements: PMC12349723, “Computationally accelerated identification of P-glycoprotein inhibitors” (PLOS One, 2025)
# Test system: not listed separately
# Experiment: SWISS-ADME computational analysis of chemical properties
# Conditions: predicted aqueous solubility compared to that observed in the laboratory
# From the text: (§1) Identifying P-gp inhibitors that are not transport substrates remains inherently challenging. To that end, computational tools such as the SWISS-ADME server attempt to use a molecule’s unique chemical and structural characteristics to predict whether it is likely to be a P-gp transport substrate. Our LC-MS/MS assays allowed us to retroactively test the validity of predictions from SWISS-ADME. […] Alternative identifiers for the molecules identified in this study are shown in S7 Table.
# (§2) S1 Table. Known P-gp Inhibitors and Predicted Chemical Properties. A non-exhaustive list of known P-gp inhibitors and their selected chemical properties ^[64, 65]. Clinical trial outcomes were adapted from ^[10, 11]. Compounds were evaluated using the SWISS-ADME server ^[54]. […] “Predicted P-gp Substrate” - predicted by SWISS-ADME to be a transport substrate of P-gp. “Known P-gp Substrate” – In addition to being P-gp inhibitors, these molecules are: known transport substrates of P-gp, known non-transport substrates of P-gp, unknown whether it is a transport substrate of P-gp ^[66-68]. If the molecule is designated in a specific generation of P-gp inhibitors - First Generation P-gp inhibitors, Second generation P-gp inhibitors, Third generation P-gp inhibitors.
row,Structure (SMILES),Correct Water Solubility Prediction?
1,"Nc1nonc1-n1nnc(C(=O)N/N=C/c2c3ccccc3cc3ccccc23)c1COc1ccc(F)cc1 [Compound 60, Nc1nonc1-n1nnc(C(=O)N\N=C\c2c3ccccc3cc3ccccc23)c1COc1ccc(F)cc1]",No

# Test system: P-gp
# Experiment: SWISS-ADME prediction of P-gp transport substrate
# Conditions: prediction compared to the LC-MS/MS intracellular accumulation data
# From the text: as §1, §2
row,Structure (SMILES),Correct P-gp Substrate Prediction?
1,"Nc1nonc1-n1nnc(C(=O)N/N=C/c2c3ccccc3cc3ccccc23)c1COc1ccc(F)cc1 [Compound 60, Nc1nonc1-n1nnc(C(=O)N\N=C\c2c3ccccc3cc3ccccc23)c1COc1ccc(F)cc1]",No

# Molecular target: T1, P-gp (Homo sapiens, UniProt P08183)
# T1 construct: The MDR, P-gp overexpressing DU145-TXR cells were maintained under positive selection pressure; endogenous in cells; host or cells: DU145-TXR (paclitaxel-resistant sub-line of DU145 human prostate cancer cells)
# T1 sequence (P08183 whole entry): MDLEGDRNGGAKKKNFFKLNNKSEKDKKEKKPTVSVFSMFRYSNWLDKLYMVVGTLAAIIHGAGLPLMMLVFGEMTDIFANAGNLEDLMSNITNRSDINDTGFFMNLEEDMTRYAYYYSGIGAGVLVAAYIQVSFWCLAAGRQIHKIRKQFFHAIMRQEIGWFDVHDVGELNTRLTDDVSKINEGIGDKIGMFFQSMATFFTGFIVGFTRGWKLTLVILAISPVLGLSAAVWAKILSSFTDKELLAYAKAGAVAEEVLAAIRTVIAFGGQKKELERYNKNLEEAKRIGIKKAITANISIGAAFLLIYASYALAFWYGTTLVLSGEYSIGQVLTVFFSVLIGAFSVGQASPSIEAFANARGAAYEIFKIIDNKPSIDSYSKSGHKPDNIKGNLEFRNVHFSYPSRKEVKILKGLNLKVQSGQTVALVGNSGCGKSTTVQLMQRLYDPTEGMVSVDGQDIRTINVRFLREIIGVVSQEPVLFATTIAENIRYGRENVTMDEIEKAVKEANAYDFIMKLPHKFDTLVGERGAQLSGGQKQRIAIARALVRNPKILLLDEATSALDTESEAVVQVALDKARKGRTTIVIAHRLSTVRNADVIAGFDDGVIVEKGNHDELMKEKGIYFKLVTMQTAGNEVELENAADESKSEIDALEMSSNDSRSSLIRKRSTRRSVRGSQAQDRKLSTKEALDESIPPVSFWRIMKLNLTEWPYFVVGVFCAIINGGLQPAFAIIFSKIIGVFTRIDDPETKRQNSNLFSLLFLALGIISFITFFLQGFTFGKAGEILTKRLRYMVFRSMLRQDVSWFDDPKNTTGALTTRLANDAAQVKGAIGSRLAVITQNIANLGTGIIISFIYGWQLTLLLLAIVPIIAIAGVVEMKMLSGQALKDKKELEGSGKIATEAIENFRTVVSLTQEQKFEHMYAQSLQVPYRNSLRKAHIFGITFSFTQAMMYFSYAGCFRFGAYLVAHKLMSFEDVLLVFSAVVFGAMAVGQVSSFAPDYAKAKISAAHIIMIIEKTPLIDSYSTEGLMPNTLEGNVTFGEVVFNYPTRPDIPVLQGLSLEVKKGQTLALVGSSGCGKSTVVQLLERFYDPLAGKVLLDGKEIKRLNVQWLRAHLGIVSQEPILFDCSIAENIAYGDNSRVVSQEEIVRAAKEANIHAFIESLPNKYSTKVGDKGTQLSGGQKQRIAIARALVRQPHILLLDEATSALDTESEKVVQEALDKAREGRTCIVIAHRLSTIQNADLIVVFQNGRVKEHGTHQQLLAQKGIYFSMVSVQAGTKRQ
# Experiment: Top Hit classification from combined in vitro criteria
# Conditions: reverse MDR, do not increase PTX toxicity in chemo-sensitive cancer cells, non-toxic to noncancerous cells, not P-gp substrates
row,Structure (SMILES),Top Hit
1,"Nc1nonc1-n1nnc(C(=O)N/N=C/c2c3ccccc3cc3ccccc23)c1COc1ccc(F)cc1 [Compound 60, Nc1nonc1-n1nnc(C(=O)N\N=C\c2c3ccccc3cc3ccccc23)c1COc1ccc(F)cc1]",No

# Test system: DU145-TXR cells
# Experiment: MTT viability assay, reversal of MDR (re-sensitization to paclitaxel) in P-gp overexpressing DU145-TXR cells
# Format: cell-based, human
# Conditions: 15 µM compound + 500 nM PTX (Paclitaxel, Taxol); DU145-TXR; mean of 8 samples
# Description: The chemotherapeutic sensitive DU145 human prostate cancer cells and the multidrug resistant sub-line, DU145-TXR, were generous gifts from Dr. Evan Keller (University of Michigan, Ann Arbor, MI). The MDR, P-gp overexpressing DU145-TXR cells were maintained under positive selection pressure by supplementing complete medium with 10 nM paclitaxel (Acros Organics, NJ). In addition to the aforementioned cell lines, the chemotherapeutic sensitive A2780 ovarian cancer cells (93112519, Sigma) and the multidrug resistant A2780-ADR (93112520, Sigma) were maintained in complete RPMI media consisting of RPMI-1640 with L-glutamine, 10% fetal bovine serum (FBS; Corning), 100 U/mL penicillin and 100 μg/mL streptomycin in a humidified incubator at 37 °C and 5% CO2. The MDR, P-gp overexpressing A2780-ADR cell line was maintained under positive selection pressure by supplementing complete medium with 100 nM doxorubicin (Fisher Scientific, NJ). The non-cancerous HFL1 (human lung fibroblast) cell line cell line was a generous gift from Dr. Robert Harrod (Southern Methodist University, Dallas, TX) and was maintained in complete F12K media consisting of F12K with 10% fetal bovine serum, 100 U/mL penicillin, and 100 µg/mL streptomycin (Gibco). Flasks and 96 well plates that were used with the non-cancerous line HFL1 were pre-treated with 0.1 mg/ml Collagen Type 1 (Gibco) and rinsed with PBS (Fisher).
# Culture of the DU145, DU145-TXR, and HFL1 cell lines was performed as described in [8]. Culture of the A2780 and A2780-ADR cell lines was performed as described in [9]. MTT assays were performed as described in [8] with minor modifications. LC-MS/MS accumulation assays were performed as described in {Nanayakkara, 2018 #173} [9] with some modifications. […] The inhibitor concentration was lowered to 15 µM here, as the goal of the study was to identify compounds that were effective in reversing MDR at low concentrations, and to determine if the expanded virtual-assisted methods improved on our first-draft attempt. Compounds 56–98 were pre-screened using Resazurin cell viability assays: cells were incubated with 15 µM compound with or without 500 nM PTX for 48 hours, after which cell survival was assessed similar to [39]. Data represent the mean of two separate experiments, with n = 3 samples per experiment (n = 6 total) (S4 Table). The top performing compounds from this initial screen were re-tested with MTT viability assays against DU145-TXR cells, as described below.
# MTT assays measure the reduction of yellow, water soluble 3-(4,5-dimethylthiazol-2-yl)-2,5-diphenyltetrazolium bromide (MTT) to blue, insoluble formazan crystals by cellular reductase processes in living cells. Cells were trypsinized from monolayers and seeded in complete medium in 96 well plates. Cancerous cell lines (DU145, DU145-TXR, A2780, A2780-ADR) were seeded at 3,000 cells per well in complete RPMI medium. The non-cancerous HFL1 line was seeded at 4,000 cells per well in complete F12K medium, in collagen-treated plates (Collagen Type 1, Gibco). Cells were incubated with experimental compounds for 48 hours at 37 °C and 5% CO2 in a humidified incubator. At 48 hours, MTT was added (20 µL/well of 5 mg/mL MTT in PBS) to each well. After incubation for 4 hours, the media was removed, and the formazan crystals were dissolved in 100 µL DMSO per well. Plates containing the semi-adherent A2780 or A2780-ADR lines were spun at 1400 rpm for 3 minutes prior to aspiration of media, and the addition of DMSO. Plates were shaken for 10 minutes at 500 rpm on an Orbital shaker (LabDoctor from MidSci, St Louis, MO). The absorbance was measured at 570 nm using a Bio-Tek Cytation 5 (Bio-Tek, Winooski, VT). The measured absorbance value was correlated with the number of metabolically active cells in that well, corrected for absorbance of media. […]
row,Structure (SMILES),"% Survival, mean [%]"
1,"Nc1nonc1-n1nnc(C(=O)N/N=C/c2c3ccccc3cc3ccccc23)c1COc1ccc(F)cc1 [Compound 60, Nc1nonc1-n1nnc(C(=O)N\N=C\c2c3ccccc3cc3ccccc23)c1COc1ccc(F)cc1]",92.8

# Same assay, conditions: 15 µM compound + 500 nM PTX (Paclitaxel, Taxol); DU145-TXR; trial 1, sample 1
row,Structure (SMILES),% Survival [%]
1,"Nc1nonc1-n1nnc(C(=O)N/N=C/c2c3ccccc3cc3ccccc23)c1COc1ccc(F)cc1 [Compound 60, Nc1nonc1-n1nnc(C(=O)N\N=C\c2c3ccccc3cc3ccccc23)c1COc1ccc(F)cc1]",84

# Same assay, conditions: 15 µM compound + 500 nM PTX (Paclitaxel, Taxol); DU145-TXR; trial 1, sample 2
row,Structure (SMILES),% Survival [%]
1,"Nc1nonc1-n1nnc(C(=O)N/N=C/c2c3ccccc3cc3ccccc23)c1COc1ccc(F)cc1 [Compound 60, Nc1nonc1-n1nnc(C(=O)N\N=C\c2c3ccccc3cc3ccccc23)c1COc1ccc(F)cc1]",102

# Same assay, conditions: 15 µM compound + 500 nM PTX (Paclitaxel, Taxol); DU145-TXR; trial 1, sample 3
row,Structure (SMILES),% Survival [%]
1,"Nc1nonc1-n1nnc(C(=O)N/N=C/c2c3ccccc3cc3ccccc23)c1COc1ccc(F)cc1 [Compound 60, Nc1nonc1-n1nnc(C(=O)N\N=C\c2c3ccccc3cc3ccccc23)c1COc1ccc(F)cc1]",83

# Same assay, conditions: 15 µM compound + 500 nM PTX (Paclitaxel, Taxol); DU145-TXR; trial 1, sample 4
row,Structure (SMILES),% Survival [%]
1,"Nc1nonc1-n1nnc(C(=O)N/N=C/c2c3ccccc3cc3ccccc23)c1COc1ccc(F)cc1 [Compound 60, Nc1nonc1-n1nnc(C(=O)N\N=C\c2c3ccccc3cc3ccccc23)c1COc1ccc(F)cc1]",120

# Same assay, conditions: 15 µM compound + 500 nM PTX (Paclitaxel, Taxol); DU145-TXR; trial 2, sample 1
row,Structure (SMILES),% Survival [%]
1,"Nc1nonc1-n1nnc(C(=O)N/N=C/c2c3ccccc3cc3ccccc23)c1COc1ccc(F)cc1 [Compound 60, Nc1nonc1-n1nnc(C(=O)N\N=C\c2c3ccccc3cc3ccccc23)c1COc1ccc(F)cc1]",83

# Same assay, conditions: 15 µM compound + 500 nM PTX (Paclitaxel, Taxol); DU145-TXR; trial 2, sample 2
row,Structure (SMILES),% Survival [%]
1,"Nc1nonc1-n1nnc(C(=O)N/N=C/c2c3ccccc3cc3ccccc23)c1COc1ccc(F)cc1 [Compound 60, Nc1nonc1-n1nnc(C(=O)N\N=C\c2c3ccccc3cc3ccccc23)c1COc1ccc(F)cc1]",92

# Same assay, conditions: 15 µM compound + 500 nM PTX (Paclitaxel, Taxol); DU145-TXR; trial 2, sample 3
row,Structure (SMILES),% Survival [%]
1,"Nc1nonc1-n1nnc(C(=O)N/N=C/c2c3ccccc3cc3ccccc23)c1COc1ccc(F)cc1 [Compound 60, Nc1nonc1-n1nnc(C(=O)N\N=C\c2c3ccccc3cc3ccccc23)c1COc1ccc(F)cc1]",89

# Same assay, conditions: 15 µM compound + 500 nM PTX (Paclitaxel, Taxol); DU145-TXR; trial 2, sample 4
row,Structure (SMILES),% Survival [%]
1,"Nc1nonc1-n1nnc(C(=O)N/N=C/c2c3ccccc3cc3ccccc23)c1COc1ccc(F)cc1 [Compound 60, Nc1nonc1-n1nnc(C(=O)N\N=C\c2c3ccccc3cc3ccccc23)c1COc1ccc(F)cc1]",89

# Same assay, conditions: Homo sapiens, 15 µM Compound Alone; DU145-TXR; mean of 8 samples; read-out: % Survival, mean
row,Structure (SMILES),viability at 15 µM [%]
1,"Nc1nonc1-n1nnc(C(=O)N/N=C/c2c3ccccc3cc3ccccc23)c1COc1ccc(F)cc1 [Compound 60, Nc1nonc1-n1nnc(C(=O)N\N=C\c2c3ccccc3cc3ccccc23)c1COc1ccc(F)cc1]",93.6

# Same assay, conditions: Homo sapiens, 15 µM Compound Alone; DU145-TXR; trial 1, sample 1; read-out: % Survival
row,Structure (SMILES),viability at 15 µM [%]
1,"Nc1nonc1-n1nnc(C(=O)N/N=C/c2c3ccccc3cc3ccccc23)c1COc1ccc(F)cc1 [Compound 60, Nc1nonc1-n1nnc(C(=O)N\N=C\c2c3ccccc3cc3ccccc23)c1COc1ccc(F)cc1]",100

# Same assay, conditions: Homo sapiens, 15 µM Compound Alone; DU145-TXR; trial 1, sample 2; read-out: % Survival
row,Structure (SMILES),viability at 15 µM [%]
1,"Nc1nonc1-n1nnc(C(=O)N/N=C/c2c3ccccc3cc3ccccc23)c1COc1ccc(F)cc1 [Compound 60, Nc1nonc1-n1nnc(C(=O)N\N=C\c2c3ccccc3cc3ccccc23)c1COc1ccc(F)cc1]",103

# Same assay, conditions: Homo sapiens, 15 µM Compound Alone; DU145-TXR; trial 1, sample 3; read-out: % Survival
row,Structure (SMILES),viability at 15 µM [%]
1,"Nc1nonc1-n1nnc(C(=O)N/N=C/c2c3ccccc3cc3ccccc23)c1COc1ccc(F)cc1 [Compound 60, Nc1nonc1-n1nnc(C(=O)N\N=C\c2c3ccccc3cc3ccccc23)c1COc1ccc(F)cc1]",90

# Same assay, conditions: Homo sapiens, 15 µM Compound Alone; DU145-TXR; trial 1, sample 4; read-out: % Survival
row,Structure (SMILES),viability at 15 µM [%]
1,"Nc1nonc1-n1nnc(C(=O)N/N=C/c2c3ccccc3cc3ccccc23)c1COc1ccc(F)cc1 [Compound 60, Nc1nonc1-n1nnc(C(=O)N\N=C\c2c3ccccc3cc3ccccc23)c1COc1ccc(F)cc1]",96

# Same assay, conditions: Homo sapiens, 15 µM Compound Alone; DU145-TXR; trial 2, sample 1; read-out: % Survival
row,Structure (SMILES),viability at 15 µM [%]
1,"Nc1nonc1-n1nnc(C(=O)N/N=C/c2c3ccccc3cc3ccccc23)c1COc1ccc(F)cc1 [Compound 60, Nc1nonc1-n1nnc(C(=O)N\N=C\c2c3ccccc3cc3ccccc23)c1COc1ccc(F)cc1]",93

# Same assay, conditions: Homo sapiens, 15 µM Compound Alone; DU145-TXR; trial 2, sample 2; read-out: % Survival
row,Structure (SMILES),viability at 15 µM [%]
1,"Nc1nonc1-n1nnc(C(=O)N/N=C/c2c3ccccc3cc3ccccc23)c1COc1ccc(F)cc1 [Compound 60, Nc1nonc1-n1nnc(C(=O)N\N=C\c2c3ccccc3cc3ccccc23)c1COc1ccc(F)cc1]",88

# Same assay, conditions: Homo sapiens, 15 µM Compound Alone; DU145-TXR; trial 2, sample 3; read-out: % Survival
row,Structure (SMILES),viability at 15 µM [%]
1,"Nc1nonc1-n1nnc(C(=O)N/N=C/c2c3ccccc3cc3ccccc23)c1COc1ccc(F)cc1 [Compound 60, Nc1nonc1-n1nnc(C(=O)N\N=C\c2c3ccccc3cc3ccccc23)c1COc1ccc(F)cc1]",95

# Same assay, conditions: Homo sapiens, 15 µM Compound Alone; DU145-TXR; trial 2, sample 4; read-out: % Survival
row,Structure (SMILES),viability at 15 µM [%]
1,"Nc1nonc1-n1nnc(C(=O)N/N=C/c2c3ccccc3cc3ccccc23)c1COc1ccc(F)cc1 [Compound 60, Nc1nonc1-n1nnc(C(=O)N\N=C\c2c3ccccc3cc3ccccc23)c1COc1ccc(F)cc1]",83
